“And” between values parts separate entries of the source, which are not always exact repeats. Equal entries are not always repeated. The source made the active and inactive calls. The calls are words filed in the database; no cut-off is given here.
Experiments:
[1] = molecular target: cGMP-specific 3',5'-cyclic phosphodiesterase (Homo sapiens, UniProt O76074); experiment: Inhibition of PDE5
[2] = molecular target: Rod cGMP-specific 3',5'-cyclic phosphodiesterase subunit alpha (Homo sapiens, UniProt P16499); experiment: Inhibition of PDE6
Chain of Rod cGMP-specific 3',5'-cyclic phosphodiesterase subunit alpha (P16499 whole entry): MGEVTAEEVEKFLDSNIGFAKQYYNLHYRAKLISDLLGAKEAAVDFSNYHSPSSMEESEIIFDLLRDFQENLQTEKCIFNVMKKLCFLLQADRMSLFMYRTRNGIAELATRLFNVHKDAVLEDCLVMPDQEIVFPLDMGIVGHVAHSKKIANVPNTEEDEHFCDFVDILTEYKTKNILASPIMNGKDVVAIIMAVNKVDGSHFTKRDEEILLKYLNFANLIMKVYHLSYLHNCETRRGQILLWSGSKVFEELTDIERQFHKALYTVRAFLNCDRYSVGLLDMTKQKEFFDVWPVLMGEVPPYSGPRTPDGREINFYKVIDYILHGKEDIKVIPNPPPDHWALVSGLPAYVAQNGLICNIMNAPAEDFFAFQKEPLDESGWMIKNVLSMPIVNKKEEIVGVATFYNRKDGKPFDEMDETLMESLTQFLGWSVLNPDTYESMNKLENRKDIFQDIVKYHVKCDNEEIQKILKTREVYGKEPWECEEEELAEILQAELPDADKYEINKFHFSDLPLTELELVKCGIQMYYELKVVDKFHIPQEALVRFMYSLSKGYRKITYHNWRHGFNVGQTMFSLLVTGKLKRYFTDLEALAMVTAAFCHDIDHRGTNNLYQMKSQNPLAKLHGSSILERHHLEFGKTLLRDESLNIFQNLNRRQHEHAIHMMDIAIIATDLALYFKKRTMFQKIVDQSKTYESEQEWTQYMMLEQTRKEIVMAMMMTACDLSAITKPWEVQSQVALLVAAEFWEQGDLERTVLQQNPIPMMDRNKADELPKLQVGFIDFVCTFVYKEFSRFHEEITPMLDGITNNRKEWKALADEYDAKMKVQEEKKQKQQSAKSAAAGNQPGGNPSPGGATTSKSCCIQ

[3] = Clearance in rat at 2 mg/kg, po and 2 mg/kg, iv; assay type: ADME, organism-based; settings: in vivo
[4] = Oral bioavailability in rat at 2 mg/kg; assay type: ADME, organism-based; settings: in vivo
[5] = Volume of distribution in rat at 2 mg/kg, iv and 2 mg/kg, po; assay type: ADME, organism-based; settings: in vivo
[6] = Half life in rat at 2 mg/kg, po and 2 mg/kg, iv; assay type: ADME, organism-based; settings: in vivo
Rattus norvegicus [7] = species on record: Rattus norvegicus; experiment: Unbound volume of distribution in rat; assay type: ADME, organism-based; settings: in vivo
Rattus norvegicus [8] = species on record: Rattus norvegicus; experiment: Unbound clearance in rat; assay type: ADME, organism-based; settings: in vivo
[9] = Selectivity ratio of IC50 for PDE5 to IC50 for PDE6
Rattus norvegicus [10] = experiment: Antihypertensive activity against telemeterized rat at 10 mg/kg, po; assay type: functional, organism-based; parameters: dose 10 mg/kg
[11] = Volume of distribution in dog at 2 mg/kg, iv and 2 mg/kg, po; assay type: ADME, organism-based, Canis lupus familiaris; settings: in vivo
[12] = Clearance in dog at 2 mg/kg, po and 2 mg/kg, iv; assay type: ADME, organism-based, Canis lupus familiaris; settings: in vivo
[13] = Half life in dog at 2 mg/kg, po and 2 mg/kg, iv; assay type: ADME, organism-based, Canis lupus familiaris; settings: in vivo
[14] = Oral bioavailability in dog at 2 mg/kg; assay type: ADME, organism-based, Canis lupus familiaris; settings: in vivo
[15] = Clearance in rat; assay type: ADME, organism-based; settings: in vivo
[16] = Half life in rat; assay type: ADME, organism-based; settings: in vivo
[17] = molecular target: Dual 3',5'-cyclic-AMP and -GMP phosphodiesterase 11A (Homo sapiens, UniProt Q9HCR9); experiment: Inhibition of PDE11
[18] = molecular target: Dual specificity calcium/calmodulin-dependent 3',5'-cyclic nucleotide phosphodiesterase 1A (Homo sapiens, UniProt P54750); experiment: Inhibition of PDE1A
[19] = molecular target: Dual specificity calcium/calmodulin-dependent 3',5'-cyclic nucleotide phosphodiesterase 1B (Homo sapiens, UniProt Q01064); experiment: Inhibition of PDE1B
[20] = molecular target: Dual specificity calcium/calmodulin-dependent 3',5'-cyclic nucleotide phosphodiesterase 1C (Homo sapiens, UniProt Q14123); experiment: Inhibition of PDE1C
Chain of Dual specificity calcium/calmodulin-dependent 3',5'-cyclic nucleotide phosphodiesterase 1C (Q14123 whole entry): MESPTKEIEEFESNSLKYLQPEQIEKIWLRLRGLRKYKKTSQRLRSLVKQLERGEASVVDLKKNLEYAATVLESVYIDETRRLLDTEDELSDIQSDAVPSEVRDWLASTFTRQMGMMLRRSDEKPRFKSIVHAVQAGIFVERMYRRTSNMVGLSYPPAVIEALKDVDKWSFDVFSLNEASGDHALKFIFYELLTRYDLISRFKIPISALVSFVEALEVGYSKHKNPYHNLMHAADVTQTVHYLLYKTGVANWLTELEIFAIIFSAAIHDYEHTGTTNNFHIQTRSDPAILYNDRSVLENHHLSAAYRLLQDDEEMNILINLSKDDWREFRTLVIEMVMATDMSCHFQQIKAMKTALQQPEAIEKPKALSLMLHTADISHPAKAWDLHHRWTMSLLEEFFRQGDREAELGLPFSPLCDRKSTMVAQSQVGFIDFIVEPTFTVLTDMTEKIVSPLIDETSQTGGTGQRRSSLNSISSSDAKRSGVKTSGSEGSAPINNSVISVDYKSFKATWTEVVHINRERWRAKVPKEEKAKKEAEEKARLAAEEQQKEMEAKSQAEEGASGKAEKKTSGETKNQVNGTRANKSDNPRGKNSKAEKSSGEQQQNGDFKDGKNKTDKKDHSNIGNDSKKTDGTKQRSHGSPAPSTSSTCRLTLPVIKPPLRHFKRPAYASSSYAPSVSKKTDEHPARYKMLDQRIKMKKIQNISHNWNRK

[21] = molecular target: cGMP-dependent 3',5'-cyclic phosphodiesterase (Homo sapiens, UniProt O00408); experiment: Inhibition of PDE2
[22] = molecular target: cGMP-inhibited 3',5'-cyclic phosphodiesterase 3A (Homo sapiens, UniProt Q14432); experiment: Inhibition of PDE3A
[23] = molecular target: cGMP-inhibited 3',5'-cyclic phosphodiesterase 3B (Homo sapiens, UniProt Q13370); experiment: Inhibition of PDE3B
[24] = molecular target: 3',5'-cyclic-AMP phosphodiesterase 4A (Homo sapiens, UniProt P27815); experiment: Inhibition of PDE4A
[25] = molecular target: 3',5'-cyclic-AMP phosphodiesterase 4B (Homo sapiens, UniProt Q07343); experiment: Inhibition of PDE4B
Chain of 3',5'-cyclic-AMP phosphodiesterase 4B (Q07343 whole entry): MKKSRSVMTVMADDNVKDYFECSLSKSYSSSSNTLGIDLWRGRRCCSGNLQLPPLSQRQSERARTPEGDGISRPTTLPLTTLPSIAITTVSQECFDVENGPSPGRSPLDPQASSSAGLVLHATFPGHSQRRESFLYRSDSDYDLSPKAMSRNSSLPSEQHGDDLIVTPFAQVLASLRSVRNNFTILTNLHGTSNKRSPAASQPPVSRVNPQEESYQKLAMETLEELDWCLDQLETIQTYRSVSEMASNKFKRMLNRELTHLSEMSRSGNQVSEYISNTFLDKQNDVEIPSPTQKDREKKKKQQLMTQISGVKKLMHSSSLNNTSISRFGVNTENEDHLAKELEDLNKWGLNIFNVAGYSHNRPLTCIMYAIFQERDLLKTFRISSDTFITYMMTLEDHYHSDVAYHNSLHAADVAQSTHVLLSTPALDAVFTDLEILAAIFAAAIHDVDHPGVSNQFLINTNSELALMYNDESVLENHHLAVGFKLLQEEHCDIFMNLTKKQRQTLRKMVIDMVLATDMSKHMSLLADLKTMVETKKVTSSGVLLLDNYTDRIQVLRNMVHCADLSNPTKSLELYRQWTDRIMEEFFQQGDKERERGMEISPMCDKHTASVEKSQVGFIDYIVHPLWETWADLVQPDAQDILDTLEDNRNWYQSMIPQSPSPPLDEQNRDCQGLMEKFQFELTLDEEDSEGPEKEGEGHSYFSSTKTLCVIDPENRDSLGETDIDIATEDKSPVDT

[26] = molecular target: 3',5'-cyclic-AMP phosphodiesterase 4C (Homo sapiens, UniProt Q08493); experiment: Inhibition of PDE4C
[27] = molecular target: High affinity 3',5'-cyclic-AMP phosphodiesterase 7A (Homo sapiens, UniProt Q13946); experiment: Inhibition of PDE7A
Chain of High affinity 3',5'-cyclic-AMP phosphodiesterase 7A (Q13946 whole entry): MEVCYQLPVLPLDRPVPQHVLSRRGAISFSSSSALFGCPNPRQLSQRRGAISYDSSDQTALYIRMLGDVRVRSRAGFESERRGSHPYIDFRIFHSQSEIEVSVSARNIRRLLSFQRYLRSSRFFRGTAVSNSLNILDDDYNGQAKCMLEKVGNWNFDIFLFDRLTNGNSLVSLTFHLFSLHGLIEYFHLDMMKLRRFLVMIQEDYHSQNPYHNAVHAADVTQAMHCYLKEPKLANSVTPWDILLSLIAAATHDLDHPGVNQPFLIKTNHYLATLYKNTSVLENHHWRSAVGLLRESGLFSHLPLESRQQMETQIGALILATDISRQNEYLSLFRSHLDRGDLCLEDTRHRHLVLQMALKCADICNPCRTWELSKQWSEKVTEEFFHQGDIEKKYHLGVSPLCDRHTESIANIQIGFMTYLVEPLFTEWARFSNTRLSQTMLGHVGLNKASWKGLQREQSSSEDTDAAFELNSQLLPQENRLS

[28] = molecular target: 3',5'-cyclic-AMP phosphodiesterase 7B (Homo sapiens, UniProt Q9NP56); experiment: Inhibition of PDE7B
Chain of 3',5'-cyclic-AMP phosphodiesterase 7B (Q9NP56 whole entry): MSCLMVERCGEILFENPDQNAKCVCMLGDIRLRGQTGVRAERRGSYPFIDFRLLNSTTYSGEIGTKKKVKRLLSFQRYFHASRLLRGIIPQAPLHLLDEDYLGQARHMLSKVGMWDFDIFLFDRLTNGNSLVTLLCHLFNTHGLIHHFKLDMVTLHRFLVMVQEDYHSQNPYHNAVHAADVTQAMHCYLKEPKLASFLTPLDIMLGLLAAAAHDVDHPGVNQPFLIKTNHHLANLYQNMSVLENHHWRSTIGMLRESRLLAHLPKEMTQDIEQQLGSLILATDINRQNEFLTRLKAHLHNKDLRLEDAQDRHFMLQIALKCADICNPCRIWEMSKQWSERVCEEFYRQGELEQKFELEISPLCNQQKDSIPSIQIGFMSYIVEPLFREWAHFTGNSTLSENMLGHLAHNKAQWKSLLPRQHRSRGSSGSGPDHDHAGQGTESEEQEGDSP

[29] = molecular target: High affinity cAMP-specific and IBMX-insensitive 3',5'-cyclic phosphodiesterase 8A (Homo sapiens, UniProt O60658); experiment: Inhibition of PDE8A
[30] = molecular target: High affinity cAMP-specific and IBMX-insensitive 3',5'-cyclic phosphodiesterase 8B (Homo sapiens, UniProt O95263); experiment: Inhibition of PDE8B
Chain of High affinity cAMP-specific and IBMX-insensitive 3',5'-cyclic phosphodiesterase 8B (O95263 whole entry): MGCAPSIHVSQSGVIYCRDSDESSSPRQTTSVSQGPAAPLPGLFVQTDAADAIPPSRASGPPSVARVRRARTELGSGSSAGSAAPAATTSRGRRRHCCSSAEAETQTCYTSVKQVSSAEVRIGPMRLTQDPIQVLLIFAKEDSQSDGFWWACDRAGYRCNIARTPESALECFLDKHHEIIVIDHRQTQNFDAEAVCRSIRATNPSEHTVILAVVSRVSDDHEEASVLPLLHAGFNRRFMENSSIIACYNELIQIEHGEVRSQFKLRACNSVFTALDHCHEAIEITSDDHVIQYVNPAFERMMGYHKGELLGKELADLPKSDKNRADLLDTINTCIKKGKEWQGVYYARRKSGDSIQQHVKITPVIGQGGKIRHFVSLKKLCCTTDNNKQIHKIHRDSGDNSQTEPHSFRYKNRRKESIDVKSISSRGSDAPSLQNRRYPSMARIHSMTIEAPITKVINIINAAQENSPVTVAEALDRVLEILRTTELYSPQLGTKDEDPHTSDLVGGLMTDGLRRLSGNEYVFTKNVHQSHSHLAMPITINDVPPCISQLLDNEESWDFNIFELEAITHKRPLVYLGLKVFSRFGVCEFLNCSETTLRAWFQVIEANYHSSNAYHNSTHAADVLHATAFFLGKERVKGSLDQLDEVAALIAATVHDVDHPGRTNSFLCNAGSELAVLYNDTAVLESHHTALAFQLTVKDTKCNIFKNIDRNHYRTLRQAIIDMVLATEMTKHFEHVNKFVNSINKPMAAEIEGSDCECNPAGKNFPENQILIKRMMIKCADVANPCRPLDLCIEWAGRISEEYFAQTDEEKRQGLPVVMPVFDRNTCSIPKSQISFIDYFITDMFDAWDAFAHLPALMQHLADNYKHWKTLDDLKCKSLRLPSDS

[31] = molecular target: High affinity cGMP-specific 3',5'-cyclic phosphodiesterase 9A (Homo sapiens, UniProt O76083); experiment: Inhibition of PDE9
Chain of High affinity cGMP-specific 3',5'-cyclic phosphodiesterase 9A (O76083 whole entry): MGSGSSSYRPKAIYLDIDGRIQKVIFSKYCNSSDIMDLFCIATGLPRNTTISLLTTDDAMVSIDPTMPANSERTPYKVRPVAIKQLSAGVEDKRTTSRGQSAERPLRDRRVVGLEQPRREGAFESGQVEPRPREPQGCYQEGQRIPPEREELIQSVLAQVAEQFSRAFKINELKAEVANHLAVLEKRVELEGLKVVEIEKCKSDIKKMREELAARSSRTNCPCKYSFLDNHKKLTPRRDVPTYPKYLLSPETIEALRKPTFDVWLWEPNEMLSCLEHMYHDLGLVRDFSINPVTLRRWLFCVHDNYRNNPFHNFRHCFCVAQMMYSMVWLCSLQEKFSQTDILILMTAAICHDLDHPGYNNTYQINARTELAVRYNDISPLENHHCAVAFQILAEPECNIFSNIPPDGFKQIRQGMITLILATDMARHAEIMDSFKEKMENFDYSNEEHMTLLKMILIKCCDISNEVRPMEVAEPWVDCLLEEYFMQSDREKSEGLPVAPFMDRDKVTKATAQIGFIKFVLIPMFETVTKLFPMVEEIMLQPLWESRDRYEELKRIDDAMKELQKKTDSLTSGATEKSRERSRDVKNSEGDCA

[32] = Permeability from apical to basolateral side in human Caco-2 cells; assay type: ADME, cell-based; settings: read-out: permeability
[33] = molecular target: 3',5'-cyclic-AMP phosphodiesterase 4D (Homo sapiens, UniProt Q08499)

Row | Structure (SMILES) | IC50 [1] [nM] | IC50 [2] [nM] | clearance [3] [mL/min/kg] | bioavailability [4] [%] | Vd [5] [L/kg] | half-life [6] [h] | Vdu (Rattus norvegicus [7]) [L/kg] | CL free (Rattus norvegicus [8]) [mL/min/kg] | Ratio IC50 [9] | Activity (Rattus norvegicus [10]) | Vd [11] [L/kg] | clearance [12] [mL/min/kg] | half-life [13] [h] | bioavailability [14] [%] | half-life [16] [h] | IC50 [17] [nM] | IC50 [18] [nM] | IC50 [19] [nM] | IC50 [20] [nM] | IC50 [21] [nM] | also measured
1 | CCCOCCn1c(=O)c(NCCCO)nc2cnc(-c3ccc(OC)nc3)cc21 | 0.26 | 13.8 | 28 | 52 | 1.2 | 0.7 | 31 | 730 | 30 | – | – | – | – | – | – | – | – | – | – | – | –
2 | CCCOCCn1c(=O)c(NCC(=O)N(C)C)nc2cnc(-c3ccc(OC)nc3)cc21 | 0.68 | 86.6 | 27 | 52 | 0.9 | 0.6 | – | – | 97 | Active | 0.4 | 1.8 | 4.3 | 30 | – | – | – | – | – | – | –
3 | CCCOCCn1c(=O)c(NC[C@H](C)O)nc2cnc(-c3ccc(OC)nc3)cc21 | 0.09 | 15.3 | 13.8 | 42 | 1 | 1.3 | 35 | 500 | – | – | 4.3 | 17.8 | 4.1 | 38 | – | – | – | – | – | – | –
4 | CCCOCCn1c(=O)c(NCCN2CCOCC2)nc2cnc(-c3ccc(OC)nc3)cc21 | – | 11.3 | – | – | – | – | – | – | – | Active | – | – | – | – | 0.8 | 346 | > 2000 | > 2000 | > 2000 | > 2000 | clearance [15]: 33 mL/min/kg; IC50 [22]: > 2000 nM; IC50 [23]: > 2000 nM; IC50 [24]: > 2000 nM; IC50 [25]: > 2000 nM; IC50 [26]: > 2000 nM; IC50 [27]: > 2000 nM; IC50 [28]: > 2000 nM; IC50 [29]: > 2000 nM; IC50 [30]: > 2000 nM; IC50 [31]: > 2000 nM
5 | CCCOCCn1c(=O)c(NCCN2CCOCC2)nc2ncc(-c3ccc(OC)nc3)cc21 | – | 61.8 | – | – | – | – | – | – | – | – | – | – | – | – | 1.8 | – | – | – | – | – | –
6 | CCCOCCn1c(=O)c(N[C@H]2CC[C@H](O)CC2)nc2cnc(-c3ccc(OC)nc3)cc21 | 0.05 | 9.8 | 5.5 | 50 | 1.4 | 4.1 | 100 | 400 | – | Active | 3.7 | 3.5 | 17.6 | 75 | – | 64.1 | > 2000 | > 2000 | > 2000 | > 2000 | IC50 [22]: > 2000 nM; IC50 [23]: > 2000 nM; IC50 [24]: > 2000 nM; IC50 [25]: > 2000 nM and 290 nM; IC50 [26]: > 2000 nM; IC50 [27]: > 2000 nM; IC50 [28]: > 2000 nM; IC50 [29]: > 2000 nM; IC50 [30]: > 2000 nM; IC50 [31]: > 2000 nM; Papp A→B [32]: 34 ×10⁻⁶ cm/s; IC50 [33]: 1210 nM

— ChEMBL document CHEMBL1155301, “Optimization of the aminopyridopyrazinones class of PDE5 inhibitors: discovery of 3-[(trans-4-hydroxycyclohexyl)amino]-7-(6-methoxypyridin-3-yl)-1-(2-propoxyethyl)pyrido[3,4-b]pyrazin-2(1H)-one” (Bioorg Med Chem Lett, 2009)
